Test results: paper PMC11249632, “Activation of the Calcium-Sensing Receptor by a Subfraction of Amino Acids Contained in Thyroid Drainage Fluid” (ACS Pharmacology & Translational Science, 2024)
Each block holds one compound with its values, some of them ahead of it.

Assays:
calcium-sensing receptor [1] = biological target: T1, calcium-sensing receptor (Homo sapiens, UniProt P41180, R990G); experiment: Fura-2 intracellular calcium mobilization, receptor-expressing vs nontransfected HEK293 cells; type: cell-based; parameters: gene CASR; recombinant human receptor stably expressed in HEK293 cells
T1 sequence (P41180 20-1078 R990G): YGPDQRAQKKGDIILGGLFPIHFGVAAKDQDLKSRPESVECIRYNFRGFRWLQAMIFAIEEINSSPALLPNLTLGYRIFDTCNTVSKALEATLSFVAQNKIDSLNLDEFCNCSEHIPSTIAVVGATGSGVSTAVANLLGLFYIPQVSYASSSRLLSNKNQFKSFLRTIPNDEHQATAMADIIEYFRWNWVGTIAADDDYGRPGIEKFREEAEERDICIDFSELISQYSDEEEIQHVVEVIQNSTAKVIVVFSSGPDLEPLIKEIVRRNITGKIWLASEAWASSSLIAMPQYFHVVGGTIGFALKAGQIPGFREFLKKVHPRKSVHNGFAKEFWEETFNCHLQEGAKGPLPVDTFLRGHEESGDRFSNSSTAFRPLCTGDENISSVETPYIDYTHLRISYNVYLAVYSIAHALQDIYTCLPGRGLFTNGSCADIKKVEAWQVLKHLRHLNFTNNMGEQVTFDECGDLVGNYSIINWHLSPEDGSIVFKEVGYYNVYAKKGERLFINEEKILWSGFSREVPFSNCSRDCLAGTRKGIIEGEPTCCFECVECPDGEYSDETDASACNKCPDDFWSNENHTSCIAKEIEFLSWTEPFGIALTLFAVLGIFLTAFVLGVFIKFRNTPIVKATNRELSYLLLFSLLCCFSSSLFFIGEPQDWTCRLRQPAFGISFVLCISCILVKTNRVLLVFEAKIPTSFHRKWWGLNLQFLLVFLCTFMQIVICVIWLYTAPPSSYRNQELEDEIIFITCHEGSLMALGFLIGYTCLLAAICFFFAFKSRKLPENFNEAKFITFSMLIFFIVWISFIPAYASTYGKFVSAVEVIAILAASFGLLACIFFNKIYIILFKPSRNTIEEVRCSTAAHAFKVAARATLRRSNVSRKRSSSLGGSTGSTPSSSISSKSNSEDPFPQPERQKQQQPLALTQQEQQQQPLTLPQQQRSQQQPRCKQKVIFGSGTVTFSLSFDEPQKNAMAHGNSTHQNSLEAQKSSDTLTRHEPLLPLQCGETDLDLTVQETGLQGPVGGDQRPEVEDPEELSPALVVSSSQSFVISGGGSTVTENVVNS

calcium-sensing receptor [2] = biological target: T1, calcium-sensing receptor; experiment: Fura-2 intracellular calcium mobilization, receptor-expressing vs nontransfected HEK293 cells, blocked by NPS-2143; type: cell-based; parameters: gene CASR; recombinant human receptor stably expressed in HEK293 cells
calcium-sensing receptor [3] = biological target: T1, calcium-sensing receptor; experiment: Fura-2 intracellular calcium mobilization in receptor-expressing HEK293 cells; inhibition of Ca2+-mediated activation at neutral pH (IC50 […] at pH ~[…]); type: cell-based; parameters: gene CASR; recombinant human receptor stably expressed in HEK293 cells
calcium-sensing receptor [4] = biological target: T1, calcium-sensing receptor; parameters: gene CASR

SMILES: N[C@@H](CC(=O)O)C(=O)O [L-aspartate]
Fura-2 intracellular calcium mobilization, receptor-expressing vs nontransfected (calcium-sensing receptor [1]): Concentration-dependent receptor activation by L-glutamate (A) and L-aspartate (B)

Fura-2 intracellular calcium mobilization, receptor-expressing vs nontransfected (calcium-sensing receptor [2]): ~ 5 mM
SMILES: N[C@@H](CCC(=O)O)C(=O)O [L-glutamate]

IC50 (calcium-sensing receptor [3]): ~500 nM
SMILES: CC(C)(Cc1ccc2ccccc2c1)NC[C@@H](O)COc1cccc(Cl)c1C#N [NPS-2143, 2-chloro-6-[(2R)-2-hydroxy-3-[(2-methyl-1-naphthalen-2-ylpropan-2-yl)amino]propoxy]benzonitrile]

SMILES: N[C@@H](CCC(=O)N[C@@H](CS)C(=O)NCC(=O)O)C(=O)O [glutathione]
Fura-2 intracellular calcium mobilization in receptor-expressing HEK293 cells (calcium-sensing receptor [4]): > 3 mM
